Reference: patent publication US20140112957A1, “Analegisic (Sebacoyl dinalbuphine ester) PLGA controlled release formulation form” (OLIVER YAO-PU HU, priority 2012, published 2014)

Assays:
[1] = PLGA microspheres, subcutaneous injection, 50 mg/rabbit; cited from earlier work
[2] = oil-in-water coefficient (logP) of nalbuphine and pro-soft drugs; format: physicochemical
[3] = drug saturated solubility in water; format: physicochemical

SMILES | time the effective serum concentration lasted [1] [days] | logP [2] | Aqueous solubility [3] [µg/mL]
CCCCCCCCCC(=O)Oc1ccc2c3c1O[C@H]1[C@@H](O)CC[C@@]4(O)[C@@H](C2)N(CC2CCC2)CC[C@]314 [Nalbuphine decanoate] | 4 | 3.30 | 0.67
CCCCCCC(=O)Oc1ccc2c3c1O[C@H]1[C@@H](O)CC[C@@]4(O)[C@@H](C2)N(CC2CCC2)CC[C@]314 [Nalbuphine enanthate] | – | 1.94 | 3.00
CC(C)(C)C(=O)Oc1ccc2c3c1O[C@H]1[C@@H](O)CC[C@@]4(O)[C@@H](C2)N(CC2CCC2)CC[C@]314 [Nalbuphine pivalate] | 4 | 1.42 | 33.67
CCC(=O)Oc1ccc2c3c1O[C@H]1[C@@H](O)CC[C@@]4(O)[C@@H](C2)N(CC2CCC2)CC[C@]314 [Nalbuphine propionate] | 4 | 1.05 | 44.67
O=C(CCCCCCCCC(=O)Oc1ccc2c3c1O[C@H]1[C@@H](O)CC[C@@]4(O)[C@@H](C2)N(CC2CCC2)CC[C@]314)Oc1ccc2c3c1O[C@H]1[C@@H](O)CC[C@@]4(O)[C@@H](C2)N(CC2CCC2)CC[C@]314 [Sebacoyl dinalbuphine ester] | – | 3.15 | <0.25
